Literature values, collected in patent US20180353175A1, “Surgical Fastener with Broad Spectrum MMP Inhibitors” (Ethicon LLC, priority 2017, published 2018).
Like-named read-outs stand apart in the source and are kept apart here. Square brackets hold non-standard residues; d marks the D form. Peptide text beside a SMILES is read from it. * marks the point of attachment. 4Abz = Nc1ccc(C(=O)O)cc1; NHOH = ON*

Key:
MMP7 = target: T1, MMP7 (Homo sapiens, UniProt P09237); settings: for IC50: read-out: IC50 MMP7
T1 sequence (P09237 95-267): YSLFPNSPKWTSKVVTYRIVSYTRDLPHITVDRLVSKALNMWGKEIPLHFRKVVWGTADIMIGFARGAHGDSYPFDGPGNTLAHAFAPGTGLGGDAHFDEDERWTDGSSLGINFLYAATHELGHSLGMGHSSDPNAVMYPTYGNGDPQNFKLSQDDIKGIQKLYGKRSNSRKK

MMP3 = MMP3 (Homo sapiens, UniProt P08254)
MMP3, sequence (P08254 100-477, species assumed): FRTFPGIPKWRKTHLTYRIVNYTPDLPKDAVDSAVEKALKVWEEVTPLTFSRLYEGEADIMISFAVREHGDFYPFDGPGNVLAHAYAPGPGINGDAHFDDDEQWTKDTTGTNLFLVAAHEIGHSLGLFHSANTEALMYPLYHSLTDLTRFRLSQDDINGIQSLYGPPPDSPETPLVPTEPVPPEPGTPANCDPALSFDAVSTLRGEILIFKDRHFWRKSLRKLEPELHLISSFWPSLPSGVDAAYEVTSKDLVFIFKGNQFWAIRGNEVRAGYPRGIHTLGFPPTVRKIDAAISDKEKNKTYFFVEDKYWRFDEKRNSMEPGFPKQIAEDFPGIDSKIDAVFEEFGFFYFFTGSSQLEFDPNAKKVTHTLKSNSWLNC

MMP2 = target: T2, MMP2 (Homo sapiens, UniProt P08253); settings: for IC50: read-out: IC50 MMP2
T2 sequence (P08253 110-660): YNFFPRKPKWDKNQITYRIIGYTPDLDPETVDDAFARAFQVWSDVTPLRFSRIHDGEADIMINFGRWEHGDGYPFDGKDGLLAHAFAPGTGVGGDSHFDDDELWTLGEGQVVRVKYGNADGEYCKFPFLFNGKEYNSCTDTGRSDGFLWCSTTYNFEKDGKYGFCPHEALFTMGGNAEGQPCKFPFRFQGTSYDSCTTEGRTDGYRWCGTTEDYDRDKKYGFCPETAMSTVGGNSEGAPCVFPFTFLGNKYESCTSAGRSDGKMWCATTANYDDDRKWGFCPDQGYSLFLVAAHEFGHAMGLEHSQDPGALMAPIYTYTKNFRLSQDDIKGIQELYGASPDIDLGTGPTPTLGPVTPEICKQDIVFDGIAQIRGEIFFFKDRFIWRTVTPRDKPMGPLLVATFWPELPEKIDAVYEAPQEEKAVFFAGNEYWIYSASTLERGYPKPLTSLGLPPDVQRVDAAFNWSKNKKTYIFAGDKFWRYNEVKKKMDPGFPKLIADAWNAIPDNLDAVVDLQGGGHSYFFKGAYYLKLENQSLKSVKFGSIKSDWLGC

MMP9 = MMP9 (Homo sapiens, UniProt P14780); settings: for IC50: read-out: IC50 MMP9
MMP9, sequence (P14780 94-707, species assumed): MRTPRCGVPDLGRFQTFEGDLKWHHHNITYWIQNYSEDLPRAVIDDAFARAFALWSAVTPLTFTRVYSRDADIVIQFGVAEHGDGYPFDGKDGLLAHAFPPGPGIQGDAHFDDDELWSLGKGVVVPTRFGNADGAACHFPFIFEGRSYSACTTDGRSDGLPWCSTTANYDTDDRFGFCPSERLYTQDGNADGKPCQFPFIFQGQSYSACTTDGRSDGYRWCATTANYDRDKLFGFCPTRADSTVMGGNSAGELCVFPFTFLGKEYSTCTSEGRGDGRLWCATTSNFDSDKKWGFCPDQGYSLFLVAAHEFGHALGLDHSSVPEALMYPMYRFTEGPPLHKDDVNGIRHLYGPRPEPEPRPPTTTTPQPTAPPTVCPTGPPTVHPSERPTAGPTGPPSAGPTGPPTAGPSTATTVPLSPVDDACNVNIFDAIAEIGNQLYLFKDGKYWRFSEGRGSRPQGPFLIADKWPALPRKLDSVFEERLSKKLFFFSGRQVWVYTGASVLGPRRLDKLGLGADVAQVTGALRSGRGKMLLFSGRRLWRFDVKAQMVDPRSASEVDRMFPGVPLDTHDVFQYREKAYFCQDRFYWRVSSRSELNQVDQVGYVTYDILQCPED

MMP1 = target: T3, MMP1 (Homo sapiens, UniProt P03956)
T3 sequence (P03956 100-469): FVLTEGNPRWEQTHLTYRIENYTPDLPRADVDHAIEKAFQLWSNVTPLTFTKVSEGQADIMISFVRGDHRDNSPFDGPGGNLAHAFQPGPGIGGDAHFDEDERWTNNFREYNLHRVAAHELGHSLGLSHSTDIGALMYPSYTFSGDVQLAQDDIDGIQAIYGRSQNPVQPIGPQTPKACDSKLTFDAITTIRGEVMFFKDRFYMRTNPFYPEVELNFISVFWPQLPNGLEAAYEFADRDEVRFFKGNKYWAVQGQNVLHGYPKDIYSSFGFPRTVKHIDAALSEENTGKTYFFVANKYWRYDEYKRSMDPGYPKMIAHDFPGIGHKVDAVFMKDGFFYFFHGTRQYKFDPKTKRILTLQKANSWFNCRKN

MMP8 = MMP8 (Homo sapiens, UniProt P22894)
MMP8, sequence (P22894 101-467, species assumed): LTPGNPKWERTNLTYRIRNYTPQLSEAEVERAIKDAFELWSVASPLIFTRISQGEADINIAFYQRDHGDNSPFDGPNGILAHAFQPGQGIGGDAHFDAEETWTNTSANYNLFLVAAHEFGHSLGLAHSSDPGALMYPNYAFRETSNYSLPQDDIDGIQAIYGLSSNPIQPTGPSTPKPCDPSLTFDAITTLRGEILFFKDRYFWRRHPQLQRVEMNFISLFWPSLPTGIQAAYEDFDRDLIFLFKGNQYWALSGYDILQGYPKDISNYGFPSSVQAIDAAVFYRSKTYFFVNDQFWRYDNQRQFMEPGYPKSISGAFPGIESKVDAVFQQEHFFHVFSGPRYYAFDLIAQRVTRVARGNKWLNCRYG

MMP14 = MMP14 (Homo sapiens, UniProt P50281)
MMP12 = MMP12 (Homo sapiens, UniProt P39900)
MMP12, sequence (P39900 106-470, species assumed): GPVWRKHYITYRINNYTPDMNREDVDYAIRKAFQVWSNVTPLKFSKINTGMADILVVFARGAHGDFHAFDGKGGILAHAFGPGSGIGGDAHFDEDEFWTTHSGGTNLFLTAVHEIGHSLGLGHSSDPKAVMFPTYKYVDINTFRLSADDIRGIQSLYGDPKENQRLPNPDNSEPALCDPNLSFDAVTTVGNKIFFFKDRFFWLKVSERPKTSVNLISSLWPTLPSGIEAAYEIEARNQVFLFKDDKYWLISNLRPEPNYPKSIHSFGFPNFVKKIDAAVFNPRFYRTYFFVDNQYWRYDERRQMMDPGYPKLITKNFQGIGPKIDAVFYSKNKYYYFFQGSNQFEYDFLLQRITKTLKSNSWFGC

MMP13 = MMP13 (Homo sapiens, UniProt P45452)
[1] = target: TACE (TNF-α-converting enzyme) (Homo sapiens, UniProt P78536)
TACE (TNF-α-converting enzyme), sequence (P78536 215-824, species assumed): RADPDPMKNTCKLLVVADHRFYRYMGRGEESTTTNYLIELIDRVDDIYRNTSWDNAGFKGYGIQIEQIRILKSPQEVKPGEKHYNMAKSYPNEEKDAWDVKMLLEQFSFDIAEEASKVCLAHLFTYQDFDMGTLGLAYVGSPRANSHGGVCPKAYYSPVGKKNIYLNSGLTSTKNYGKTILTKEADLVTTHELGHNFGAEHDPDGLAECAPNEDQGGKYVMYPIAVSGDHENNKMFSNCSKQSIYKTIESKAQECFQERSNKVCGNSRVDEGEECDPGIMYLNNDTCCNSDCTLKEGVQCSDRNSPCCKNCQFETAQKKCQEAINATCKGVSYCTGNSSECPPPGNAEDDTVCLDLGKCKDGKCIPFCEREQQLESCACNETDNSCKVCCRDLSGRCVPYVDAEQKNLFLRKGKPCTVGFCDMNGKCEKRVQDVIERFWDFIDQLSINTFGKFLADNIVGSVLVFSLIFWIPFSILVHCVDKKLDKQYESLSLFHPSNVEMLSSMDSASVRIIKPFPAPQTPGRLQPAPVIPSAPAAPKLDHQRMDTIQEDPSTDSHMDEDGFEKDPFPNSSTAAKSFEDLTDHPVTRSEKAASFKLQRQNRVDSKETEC

[2] = read-out: IC50 MMP8 (converted)

Question: Which results are given for “7-dimethylamino-6-dimethyl-6-deoxytetracycline [Minocycline]”?
Answer: IC50 (MMP7): 125 µM; IC50 (MMP3): 290 µM; inhibition of MMP2 (in words) (MMP2): effective for the inhibition; IC50 (MMP9): 180000 nM; inhibition of MMP1 (in words) (MMP1): effective for the inhibition

Question: Which “inhibition of MMP1 (in words)” value (MMP1) does the source give for `O=C(NO)C1(S(=O)(=O)c2ccc(Oc3ccc(Cl)cc3)cc2)CCN(Cc2ccccc2)CC1` [239796-97-5] here?
Answer: The value was “suppress”.

Question: For `CC1(C)NC(=O)N(C[C@@H](COc2ccc(-c3ccc(OC(F)(F)F)cc3)cc2)N(O)C=O)C1=O` [ABT-770], which “inhibition of MMP2 (in words)” value (MMP2) is on record?
Answer: Its value is “inhibits”.

Question: And the “inhibition of MMP9 (in words)” value (MMP9)?
Answer: The value was “inhibits”.

Question: For `C=CCN(C(=O)CCC(=O)N(O)CC(C)C)C(Cc1ccccc1)C(=O)NC` (stereo not drawn) [BB-1101], which IC50 (MMP7) is on record?
Answer: The IC50 was 0.06 µM.

Question: And the IC50 (MMP3)?
Answer: Its IC50 is 0.03 µM.

Question: And the IC50 (MMP8; [2])?
Answer: Its IC50 is 3 nM.

Question: What about the IC50 (MMP2) of the same molecule?
Answer: Its IC50 is 4 nM.

Question: What about the IC50 (MMP14) of the same molecule?
Answer: Its IC50 is 10 nM.

Question: And the IC50 (MMP12)?
Answer: The IC50 was 5 nM.

Question: And the IC50 (MMP13)?
Answer: The IC50 was 7 nM.

Question: What about the IC50 (MMP9) of the same molecule?
Answer: Its IC50 is 3 nM.

Question: And the IC50 (MMP1)?
Answer: Its IC50 is 8 nM.

Question: For `CNC(=O)[C@H](Cc1ccccc1)NC(=O)[C@H](CC(C)C)[C@H](CSc1cccs1)C(=O)NO` [Batimastat], which IC50 (MMP7) is on record?
Answer: The IC50 was 0.006 µM.

Question: What about the IC50 (MMP9) of the same molecule?
Answer: Its IC50 is 1 nM.

Question: With `NC(=O)C1=C(O)CC2CC3Cc4cccc(O)c4C(=O)C3=C(O)C2(O)C1=O` (stereo not drawn) [COL-3] as the molecule, how does the IC50 (MMP8; [2]) read?
Answer: The IC50 was 129000 nM.

Question: What about the IC50 (MMP13) of the same molecule?
Answer: The IC50 was 808 nM.

Question: And the IC50 (MMP1)?
Answer: The IC50 was 91600 nM.

Question: What does the source list for `CN1C(=O)N(C[C@H](C(=O)NO)[C@@H](CC2CCCC2)C(=O)N2CCCCC2)C(=O)C1(C)C` [Cipemastat]?
Answer: inhibition of MMP3 (in words) (MMP3): can inhibit; inhibition of MMP9 (in words) (MMP9): can inhibit; inhibition of MMP1 (in words) (MMP1): can inhibit

Question: Which results are given for `C[C@H]1c2cccc(O)c2C(=O)C2=C(O)[C@]3(O)C(=O)C(C(N)=O)=C(O)[C@@H](N(C)C)[C@@H]3[C@@H](O)[C@@H]21` [Doxycycline]?
Answer: IC50 (MMP7): 28 µM; IC50 (MMP3): 32 µM; IC50 (MMP8; [2]): 26000 to 50000 nM; IC50 (MMP2): 56000 nM; IC50 (MMP13): 2000 to 50000 nM; IC50 (MMP1): > 400000 nM

Question: For `CC(C)C[C@@H](NC(=O)[C@@H]1CCCN1C(=O)CNC(=O)c1ccc(N)cc1)C(=O)N[C@H](C)C(=O)NO` [FN-439, p-aminobenzoyl-Gly-Pro-D-Leu-D-Ala-NHOH] (H-[4Abz]GP[dL][dA]-{NHOH}), which IC50 (MMP3) is on record?
Answer: The IC50 was 150 µM.

Question: What about the IC50 (MMP8; [2]) of the same molecule?
Answer: Its IC50 is 1000 nM.

Question: And the IC50 (MMP9)?
Answer: The IC50 was 30000 nM.

Question: And the IC50 (MMP1)?
Answer: Its IC50 is 1000 nM.

Question: What does the source list for `COc1ccc(S(=O)(=O)N(Cc2cccnc2)[C@@H](C(=O)NO)C(C)C)cc1.Cl` [MMI-270]?
Answer: inhibition of MMP8 (in words) (MMP8): can inhibit; inhibition of MMP2 (in words) (MMP2): can inhibit; inhibition of MMP9 (in words) (MMP9): can inhibit

Question: Which IC50 (MMP1) does the source give for `CCN(CC)Cc1cc(C)c(N(Cc2ccccc2)S(=O)(=O)c2ccc(OC)cc2)c(C(=O)NO)c1` [MMP9 inhibitor I] here?
Answer: The IC50 was 1.05 nM.

Question: Which IC50 (MMP14) does the source give for `CNC(=O)[C@@H](NC(=O)[C@H](CC(C)C)[C@H](O)C(=O)NO)C(C)(C)C` [Marimastat] here?
Answer: Its IC50 is 1.8 nM.

Question: Which results are given for `CCOCOCC(CC(C)C(=O)NO)NC(=O)c1ccc(Oc2ccccc2)cc1` (stereo not drawn) [ONO-4817]?
Answer: Ki (MMP7): 2.5 nM; Ki (MMP3): 42 nM; Ki (MMP8): 1.1 nM; Ki (MMP2): 0.73 nM; Ki (MMP12): 0.45 nM; Ki (MMP13): 1.1 nM; IC50 (MMP9): 2.1 nM; IC50 (MMP1): 1.6 nM

Question: Which “inhibition of MMP3 (in words)” value (MMP3) does the source give for `CC1(C)SCCN(S(=O)(=O)c2ccc(Oc3ccncc3)cc2)[C@H]1C(=O)NO` [Prinomastat] here?
Answer: Its value is “specific selectivity”.

Question: And the “inhibition of MMP14 (in words)” value (MMP14)?
Answer: The value was “specific selectivity”.

Question: And the “inhibition of MMP9 (in words)” value (MMP9)?
Answer: Its value is “specific selectivity”.

Question: With `O=C(NO)C1(CS(=O)(=O)c2ccc(Oc3ccc(Cl)cc3)cc2)CCOCC1` [RS 130830] as the molecule, how does the “inhibition of MMP1 (in words)” value (MMP1) read?
Answer: Its value is “suppress”.

Question: Which results are given for `O=C1NC(=O)C(c2ccc(-c3ccccc3)cc2)(N2CCN(c3ccc([N+](=O)[O-])cc3)CC2)C(=O)N1` [Ro 28-2653]?
Answer: IC50 (MMP8; read-out: IC50 MMP8): 15 nM; IC50 (MMP2): 7 to 246 nM; IC50 (MMP9): 12 to 23 nM

Question: With “TIMP-1: endogenous tissue inhibitor of metalloproteinases; extensively glycosylated protein with a molecular mass of 28.5 kDa” as the molecule, how does the “inhibition of MMP8 (in words)” value (MMP8) read?
Answer: Its value is “preferentially inhibits”.

Question: And the “inhibition of MMPs in general (in words)” value (MMPs)?
Answer: Its value is “inhibit most MMPs (except MMP-2 and -14)”.

B1: TIMP-4: endogenous tissue inhibitor of metalloproteinases, secreted predominantly in heart and brain tissue (protein, UniProt Q99727 30-224, looked up)
Metalloproteinase inhibitor 4: CSCAPAHPQQHICHSALVIRAKISSEKVVPASADPADTEKMLRYEIKQIKMFKGFEKVKDVQYIYTPFDSSLCGVKLEANSQKQYLLTGQVLSDGKVFIHLCNYIEPWEDLSLVQRESLNHHYHLNCGCQITTCYTVPCTISAPNECLWTDWLLERKLYGYQAQHYVCMKHVDGTCSWYRGHLPLRKEFVDIVQP
Question: Which “inhibition of MMP7 (in words)” value (MMP7) does the source give for B1 here?
Answer: Its value is “preferentially inhibits”.

Question: And the “inhibition of MMP2 (in words)” value (MMP2)?
Answer: The value was “preferentially inhibits”.

Question: What about the “inhibition of MMPs in general (in words)” value (MMPs) of the same molecule?
Answer: The value was “inhibits all known MMPs”.

B2: TIMP-3: endogenous tissue inhibitor of metalloproteinases, typically bound to the ECM (protein, UniProt P35625 24-211, looked up)
Metalloproteinase inhibitor 3: CTCSPSHPQDAFCNSDIVIRAKVVGKKLVKEGPFGTLVYTIKQMKMYRGFTKMPHVQYIHTEASESLCGLKLEVNKYQYLLTGRVYDGKMYTGLCNFVERWDQLTLSQRKGLNYRYHLGCNCKIKSCYYLPCFVTSKNECLWTDMLSNFGYPGYQSKHYACIRQKGGYCSWYRGWAPPDKSIINATDP
Question: For B2, which “inhibition of MMP3 (in words)” value (MMP3) is on record?
Answer: Its value is “inhibits the activity”.

Question: What about the “inhibition of MMP2 (in words)” value (MMP2) of the same molecule?
Answer: Its value is “inhibits the activity”.

Question: What about the “inhibition of MMP13 (in words)” value (MMP13) of the same molecule?
Answer: The value was “inhibits the activity”.

Question: And the “inhibition of TACE (in words)” value [1]?
Answer: The value was “normally inhibits”.

Question: And the “inhibition of MMP9 (in words)” value (MMP9)?
Answer: The value was “inhibits the activity”.

Question: What about the “inhibition of MMP1 (in words)” value (MMP1) of the same molecule?
Answer: Its value is “inhibits the activity”.
